Source: paper PMC11358092, “Caspofungin enhances the potency of rifampin against Gram-negative bacteria” (Frontiers in Microbiology, 2024)
Structures can show the parent of a compound that is named as a salt.

System: E. coli MG1655
Assay: High-throughput screening of FDA-approved drug library for antibiotic adjuvants (growth inhibition, OD600)
Type: cell-based, Escherichia coli
Settings: library drug alone, LB medium, 96-well, 8 h static culture at 37°C, relative to PMBN (positive) and DMSO (negative) controls, %, table head prints no unit

In the case of `CC(C)(C)C(=O)OCOC(=O)[C@@H]1N2C(=O)[C@@H](/N=C/N3CCCCCC3)[C@H]2SC1(C)C` [Pivmecillinam hydrochloride], the “Growth inhibition, Compound” value is reported as 72%.
`Cc1cc(C2CCCCC2)n(O)c(=O)c1` [Ciclopirox] was tested, and the “Growth inhibition, Compound” value was 70%.
In the case of `CO[C@@]1(NC(=O)C(C(=O)O)c2ccc(O)cc2)C(=O)N2C(C(=O)O)=C(CSc3nnnn3C)CO[C@@H]21` (stereo partly drawn) [Latamoxef sodium], the “Growth inhibition, Compound” value is reported as 94%.
For `Cn1nnnc1SCC1=C(C(=O)O)N2C(=O)[C@@H](NC(=O)[C@H](OC=O)c3ccccc3)[C@H]2SC1` [Cefamandole nafate], the “Growth inhibition, Compound” value was 88%.
In the case of `CC1NCc2cc(-c3ccc4c(=O)c(C(=O)O)cn(C5CC5)c4c3OC(F)F)ccc21.CS(=O)(=O)O.O` (stereo not drawn) [Garenoxacin mesylate hydrate], the “Growth inhibition, Compound” value is reported as 106%.
`CO/N=C1\CN(c2nc3c(cc2F)c(=O)c(C(=O)O)cn3C2CC2)CC1CN` (stereo not drawn) [Gemifloxacin mesylate] was tested, and the “Growth inhibition, Compound” value was 105%.
In the case of `CS(=O)(=O)c1ccc([C@@H](O)[C@@H](CO)NC(=O)C(Cl)Cl)cc1` [Thiamphenicol], the “Growth inhibition, Compound” value is reported as 66%.
With `Cc1cn([C@H]2C=C[C@@H](CO)O2)c(=O)[nH]c1=O` [Stavudine] the “Growth inhibition, Compound” value was 27%.
With `C[C@H]1COc2c(N3CCN(C)CC3)c(F)cc3c(=O)c(C(=O)O)cn1c23` [Levofloxacin] the “Growth inhibition, Compound” value was 102%.
`C[C@@H](O)[C@H]1C(=O)N2C(C(=O)[O-])=C([C@H]3CCCO3)S[C@H]12.[Na+]` [Faropenem sodium] was tested, and the “Growth inhibition, Compound” value was 100%.
For `CC(=O)OCC1=C(C(=O)O)N2C(=O)[C@@H](NC(=O)Cc3cccs3)[C@H]2SC1` [Cephalotin acid], the “Growth inhibition, Compound” value was 92%.
With `CN1CCN(c2c(F)cc3c(=O)c(C(=O)O)cn(CCF)c3c2F)CC1` [Fleroxacin] the “Growth inhibition, Compound” value was 109%.
`O=c1[nH]cnc2c1ncn2[C@H]1CC[C@@H](CO)O1` [Didanosine] was tested, and the “Growth inhibition, Compound” value was 41%.
With `C/C(=C\C(=O)OCCCCCCCCC(=O)O)C[C@@H]1OC[C@H](C[C@@H]2O[C@H]2[C@@H](C)[C@H](C)O)[C@@H](O)[C@H]1O` [Mupirocin] the “Growth inhibition, Compound” value was 83%.
With `CC1CCc2c(N3CCC(O)CC3)c(F)cc3c(=O)c(C(=O)O)cn1c23` (stereo not drawn) [Nadifloxacin] the “Growth inhibition, Compound” value was 110%.
With `Nc1nc(F)nc2c1ncn2[C@@H]1O[C@H](COP(=O)(O)O)[C@@H](O)[C@@H]1O` [Fludarabine Phosphate] the “Growth inhibition, Compound” value was 43%.
In the case of `Nc1ccc2cc3ccc(N)cc3nc2c1` [Proflavine Hemisulfate], the “Growth inhibition, Compound” value is reported as 54%.
In the case of `NC1CCN(c2nc3c(cc2F)c(=O)c(C(=O)O)cn3-c2ccc(F)cc2F)C1` (stereo not drawn) [Tosufloxacin], the “Growth inhibition, Compound” value is reported as 106%.
With `CO/N=C(\C(=O)N[C@@H]1C(=O)N2C(C(=O)O)=C(CSc3nnnn3C)CS[C@H]12)c1csc(N)n1.CO/N=C(\C(=O)N[C@@H]1C(=O)N2C(C(=O)O)=C(CSc3nnnn3C)CS[C@H]12)c1csc(N)n1.Cl` [Cefmenoxime hydrochloride] the “Growth inhibition, Compound” value was 96%.
In the case of `CC(=O)Nc1ncc([N+](=O)[O-])s1` [Nithiamide], the “Growth inhibition, Compound” value is reported as 87%.
With `[H]/N=C(\N/C(=N/[H])NCCCCCCNC(=N)NC(=N)Nc1ccc(Cl)cc1)Nc1ccc(Cl)cc1` [Chlorhexidine hydrochloride] the “Growth inhibition, Compound” value was 107%.
For `C=CC1=C(C(=O)O)N2C(=O)[C@@H](NC(=O)/C(=N\O)c3csc(N)n3)[C@H]2SC1` [Cefdinir], the “Growth inhibition, Compound” value was 100%.
For `O.c1cnc2c(c1)ccc1cccnc12` [1, 10-Phenanthroline monohydrate], the “Growth inhibition, Compound” value was 62%.
`CN(C)[C@@H]1C(O)=C(C(N)=O)C(=O)[C@@]2(O)C(O)=C3C(=O)c4c(O)cccc4[C@@](C)(O)[C@H]3[C@H](O)[C@@H]12` [Oxytetracycline Hydrochloride] was tested, and the “Growth inhibition, Compound” value was 106%.
With `Oc1c(Cl)cc(Cl)cc1Sc1cc(Cl)cc(Cl)c1O` [Bithionol] the “Growth inhibition, Compound” value was 86%.
In the case of `CCn1cc(C(=O)O)c(=O)c2cc(F)c(N3CCNCC3)nc21.CCn1cc(C(=O)O)c(=O)c2cc(F)c(N3CCNCC3)nc21.O.O.O` [Enoxacin Sesquihydrate], the “Growth inhibition, Compound” value is reported as 110%.
`O=[N+]([O-])c1ccc(O)c2ncccc12` [Nitroxoline] was tested, and the “Growth inhibition, Compound” value was 105%.
For `Cc1ccc2c(Cl)cc(Cl)c(O)c2n1` [Chloquinan], the “Growth inhibition, Compound” value was 119%.
`CC[C@H]1OC(=O)[C@H](C)[C@@H](O[C@H]2C[C@@](C)(OC)[C@@H](O)[C@H](C)O2)[C@H](C)[C@@H](O[C@@H]2O[C@H](C)C[C@H](N(C)C)[C@H]2O)[C@](C)(O)C[C@@H](C)C(=O)[C@H](C)[C@H]2OC(=O)O[C@@]21C` [Davercin] was tested, and the “Growth inhibition, Compound” value was 114%.
For `C=CC1=C(C(=O)O)N2C(=O)[C@@H](NC(=O)/C(=N\OCC(=O)O)c3csc(N)n3)[C@H]2SC1` [Cefixime], the “Growth inhibition, Compound” value was 109%.
With `CCCCCCCCc1ccc(CCC(N)(CO)CO)cc1` [Fingolimod hydrochloride] the “Growth inhibition, Compound” value was 87%.
With `CCn1cc(C(=O)O)c(=O)c2cc(F)c(N3CCNC(C)C3)c(F)c21` (stereo not drawn) [Lomefloxacin hydrochloride] the “Growth inhibition, Compound” value was 107%.
In the case of `CN[C@@H]1[C@@H](O)[C@@H](O[C@@H]2[C@@H](O)[C@H](O[C@H]3O[C@H](CN)[C@@H](O)[C@H](O)[C@H]3O)[C@@H](N)C[C@H]2NC(=O)[C@@H](O)CN)OC[C@]1(C)O` [Isepamicin sulfate], the “Growth inhibition, Compound” value is reported as 108%.
With `COc1c(N2C[C@@H]3CCCN[C@@H]3C2)c(F)cc2c(=O)c(C(=O)O)cn(C3CC3)c12` [Moxifloxacin hydrochloride] the “Growth inhibition, Compound” value was 111%.
`Oc1c(I)cc(Cl)c2cccnc12` [Clioquinol] was tested, and the “Growth inhibition, Compound” value was 94%.
`CCn1cc(C(=O)O)c(=O)c2ccc(C)nc21` [Nalidixic acid] was tested, and the “Growth inhibition, Compound” value was 74%.
In the case of `Nc1n[n+]([O-])c2ccccc2[n+]1[O-]` [Tirapazamine], the “Growth inhibition, Compound” value is reported as 114%.
With `OB1OCc2cc(F)ccc21` [Tavaborole] the “Growth inhibition, Compound” value was 91%.
In the case of `Cc1cc(C2CCCCC2)n(O)c(=O)c1.NCCO` [Ciclopirox ethanolamine], the “Growth inhibition, Compound” value is reported as 114%.
In the case of `Cc1nnc(SCC2=C(C(=O)O)N3C(=O)[C@@H](NC(=O)Cn4cc(Cl)c(=O)c(Cl)c4)[C@H]3SC2)s1` [Cefazedone], the “Growth inhibition, Compound” value is reported as 111%.
For `CO[C@@]1(NC(=O)Cc2cccs2)C(=O)N2C(C(=O)O)=C(COC(N)=O)CS[C@@H]21` [Cefoxitin sodium], the “Growth inhibition, Compound” value was 78%.
With `C[C@@H](O)[C@H]1C(=O)N2C(C(=O)O)=C(SC3CN(C4=NCCS4)C3)[C@H](C)[C@H]12` [Tebipenem] the “Growth inhibition, Compound” value was 109%.
In the case of `NCc1ccccc1CC(=O)N[C@@H]1C(=O)N2C(C(=O)O)=C(CSc3nnnn3CC(=O)O)CS[C@H]12` [Ceforanide], the “Growth inhibition, Compound” value is reported as 94%.
For `Cc1oc(=O)oc1COC(=O)N1CC[C@@H](N2CC/C(=C\C3=C(C(=O)O)N4C(=O)[C@@H](NC(=O)/C(=N/O)c5nsc(N)n5)[C@H]4SC3)C2=O)C1` [Ceftobiprole medocaril], the “Growth inhibition, Compound” value was 106%.
For `CNc1ncc(-c2ccc3c(=O)c(C(=O)O)cn(C4CC4)c3c2C)cc1C` [Ozenoxacin], the “Growth inhibition, Compound” value was 106%.
`CCCN1C[C@H](C)[C@@H](O)[C@](C)(O)[C@@H](CC)OC(=O)[C@H](C)[C@@H](O[C@H]2C[C@@](C)(OC)[C@@H](O)[C@H](C)O2)[C@H](C)[C@@H](O[C@@H]2O[C@H](C)C[C@H](N(C)C)[C@H]2O)[C@](C)(O)C[C@H]1C` [Gamithromycin] was tested, and the “Growth inhibition, Compound” value was 96%.
With `c1cnc2c(c1)ccc1cccnc12` [o-Phenanthroline] the “Growth inhibition, Compound” value was 79%.
In the case of `CO/N=C(\C(=O)N[C@@H]1C(=O)N2C(C(=O)O)=C(C[N+]3(C)CCCC3)CS[C@H]12)c1csc(N)n1` [Cefepime Dihydrochloride Monohydrate], the “Growth inhibition, Compound” value is reported as 83%.
With `Cc1c(N)nc([C@H](CC(N)=O)NC[C@H](N)C(N)=O)nc1C(=O)N[C@H](C(=O)N[C@H](C)[C@@H](O)[C@H](C)C(=O)N[C@H](C(=O)NCCc1nc(-c2nc(C(=O)NCCC[S+](C)C)cs2)cs1)[C@@H](C)O)[C@@H](O[C@@H]1O[C@@H](CO)[C@@H](O)[C@H](O)[C@@H]1O[C@H]1O[C@H](CO)[C@@H](O)[C@H](OC(N)=O)[C@@H]1O)c1cnc[nH]1.O=S(=O)([O-])O` [Bleomycin Sulfate] the “Growth inhibition, Compound” value was 110%.
For `CC1(C)S[C@@H]2[C@H](NC(=O)[C@H](N)c3ccccc3)C(=O)N2[C@H]1C(=O)O` [Ampicillin sodium], the “Growth inhibition, Compound” value was 91%.
`CNC[C@H](O)[C@@H](O)[C@H](O)[C@H](O)CO.Nc1nc(-n2cc(C(=O)O)c(=O)c3cc(F)c(N4CC(O)C4)c(Cl)c32)c(F)cc1F` [Delafloxacin meglumine] was tested, and the “Growth inhibition, Compound” value was 103%.
For `Nc1nc(-n2cc(C(=O)O)c(=O)c3cc(F)c(N4CC(O)C4)c(Cl)c32)c(F)cc1F` [Delafloxacin], the “Growth inhibition, Compound” value was 105%.
In the case of `C[C@@H](O)[C@H]1C(=O)N2C(C(=O)O)=C(S[C@@H]3CN[C@H](C(=O)N(C)C)C3)[C@H](C)[C@H]12` [Meropenem trihydrate], the “Growth inhibition, Compound” value is reported as 86%.
For `CNC1CCCN(c2c(F)cc3c(=O)c(C(=O)O)cn(C4CC4)c3c2OC)C1` (stereo not drawn) [Balofloxacin], the “Growth inhibition, Compound” value was 108%.
In the case of `CCCCCCCCc1ccc(CCC(N)(CO)CO)cc1` [Fingolimod], the “Growth inhibition, Compound” value is reported as 90%.
`CCN1CCN(C(=O)N[C@@H](C(=O)N[C@@H]2C(=O)N3[C@@H]2SC(C)(C)[C@@H]3C(=O)O)c2ccccc2)C(=O)C1=O` [piperacillin] was tested, and the “Growth inhibition, Compound” value was 107%.
With `CC1(C)S[C@@H]2[C@H](NC(=O)[C@H](NC(=O)N3CCN(S(C)(=O)=O)C3=O)c3ccccc3)C(=O)N2[C@H]1C(=O)O` [Mezlocillin Sodium] the “Growth inhibition, Compound” value was 89%.
